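Step 1: Grow cells in 96-well plates. Step 2: Expose to compound for 48 hours at 5 concentrations. Step 3: Interpolate endpoints linearly; if unreached, use highest concentration. GI50 = concentration required for 50% inhibition of growth.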 Calls of active or inactive are those of the source. Rule as the data show it: active = GI50 up to about 1.1 µM and inactive = higher.
Key:
Test in all cases: NCI-60 cell line screen, 48 h
NCI-H226 = tested on: NCI-H226
RPMI-8226 = tested on: RPMI-8226
HOP-92 = tested on: HOP-92
OVCAR-8 = tested on: OVCAR-8
HL-60 = tested on: HL-60
Malme-3M = tested on: Malme-3M
SW-620 = tested on: SW-620
CCRF-CEM = tested on: CCRF-CEM
DU-145 = tested on: DU-145
A498 = tested on: A498
MCF7 = tested on: MCF7
M14 = tested on: M14
U-251 = tested on: U-251
OVCAR-5 = tested on: OVCAR-5
HCT-116 = tested on: HCT-116
SK-MEL-5 = tested on: SK-MEL-5
SK-OV-3 = tested on: SK-OV-3
SF-295 = tested on: SF-295
LOX IMVI = tested on: LOX IMVI
IGROV-1 = tested on: IGROV-1

Row | SMILES | GI50 (NCI-H226) | GI50 (RPMI-8226) | GI50 (HOP-92) | GI50 (OVCAR-8) | GI50 (HL-60) | GI50 (Malme-3M) | GI50 (SW-620) | GI50 (CCRF-CEM) | GI50 (DU-145) | GI50 (A498) | GI50 (MCF7) | GI50 (M14) | GI50 (U-251) | GI50 (OVCAR-5) | GI50 (HCT-116) | GI50 (SK-MEL-5) | GI50 (SK-OV-3) | GI50 (SF-295) | GI50 (LOX IMVI) | GI50 (IGROV-1)
1 | CC(C)C1=CC23CCC4C(C)(C(=O)O)CCCC4(C)C2CC1C1C(=O)N(c2ccc(N4C(=O)C5C6CC7C8(C)CCCC(C)(C(=O)O)C8CCC7(C=C6C(C)C)C5C4=O)cc2)C(=O)C13 (stereo unspecified) | 3.45 µM (inactive) | 3.96 µM (inactive) | 14.7 µM (inactive) | 4.89 µM (inactive) | 3.4 µM (inactive) | 14.1 µM (inactive) | 8.41 µM (inactive) | 3.85 µM (inactive) | 4.71 µM (inactive) | 11.2 µM (inactive) | 3.33 µM (inactive) | 4.16 µM (inactive) | 4.28 µM (inactive) | 10.3 µM (inactive) | 3.38 µM (inactive) | 3.44 µM (inactive) | – | – | – | –
2 | Cc1cccc(N(C(=O)Nc2ccc(Cl)c(Cl)c2)C2=NCC(C)S2)c1 (stereo unspecified) | – | 49.1 µM (inactive) | 38.6 µM (inactive) | 60.4 µM (inactive) | 41.6 µM (inactive) | 60.1 µM (inactive) | 32.1 µM (inactive) | 46.1 µM (inactive) | > 100 µM (inactive) | 57.8 µM (inactive) | 17 µM (inactive) | 0.55 µM (active) | 62.5 µM (inactive) | > 100 µM (inactive) | 43.1 µM (inactive) | 17.5 µM (inactive) | > 100 µM (inactive) | 78.3 µM (inactive) | 18.3 µM (inactive) | 69.7 µM (inactive)
3 | COc1cc2ncnc(NS(=O)(=O)c3cc4ccccc4s3)c2cc1OC | > 100 µM (inactive) | 58.3 µM (inactive) | 34 µM (inactive) | > 100 µM (inactive) | – | > 100 µM (inactive) | > 100 µM (inactive) | > 100 µM (inactive) | > 100 µM (inactive) | 56.4 µM (inactive) | > 100 µM (inactive) | > 100 µM (inactive) | > 100 µM (inactive) | > 100 µM (inactive) | > 100 µM (inactive) | > 100 µM (inactive) | > 100 µM (inactive) | > 100 µM (inactive) | > 100 µM (inactive) | 81.5 µM (inactive)
4 | Cc1csc2c(=O)n(C3OC(CO)C(O)C3O)c(=O)[nH]c12 (stereo unspecified) | > 100 µM (inactive) | > 100 µM (inactive) | > 100 µM (inactive) | > 100 µM (inactive) | > 100 µM (inactive) | > 100 µM (inactive) | > 100 µM (inactive) | > 100 µM (inactive) | > 100 µM (inactive) | > 100 µM (inactive) | > 100 µM (inactive) | > 100 µM (inactive) | > 100 µM (inactive) | > 100 µM (inactive) | > 100 µM (inactive) | > 100 µM (inactive) | – | > 100 µM (inactive) | > 100 µM (inactive) | > 100 µM (inactive)
5 | [N-]=[N+]=NC1=CC(=O)c2cccc3cccc1c23 | – | 56.6 µM (inactive) | 18.4 µM (inactive) | – | > 100 µM (inactive) | 31.4 µM (inactive) | 17 µM (inactive) | 10.6 µM (inactive) | 33.4 µM (inactive) | 12.2 µM (inactive) | 34.2 µM (inactive) | 18.4 µM (inactive) | 20.1 µM (inactive) | 49.3 µM (inactive) | 23.5 µM (inactive) | 12 µM (inactive) | 15.3 µM (inactive) | 24.9 µM (inactive) | 17.3 µM (inactive) | 15.8 µM (inactive)

Source: ChEMBL document CHEMBL1201862, “PubChem BioAssay data set” (2004)
